# Laboratory results taken from patent US20080306037A1, “Product for Use in the Prevention and Treatment of Cardiovascular Diseases, Cancer and Chronic Inflammatory Diseases” (priority 2005, published 2008).
# System: NF-kB transcription factor
# Assay: Luciferase trial: inhibition of NF-kB activation by TNFα in 5.1 linfoid cells (Jurkat clone, HIV-LTR luciferase)
# Format: cell-based
# Settings: concentration 125 μg/ml, 30 min pre-incubation, TNFα 2 ng/ml 6 hours
# Procedure: Cells. A cellular line 5.1, that is a clone derived from Jurkat stably transfected with a plasmid that contains the gene of the luciferase channelled by the HIV-LTR promoter, an exponential growth is maintained in a RPMI 1640 medium supplemented with a 10% of an foetal bovine serum deactivated by heat, 2 mM of L-glutamine, 1 mM HEPES, antibiotics and 200 μg/ml of G418. Luciferase Trial. […] Next, the cells were damaged in 25 mM tris-phosphate pH 7,8, 8 mM MgCl2 1 mM DTT, 1% Triton X-100, y 7% glycerol. The luciferase activity was measured using Autolumat LB 9501 following the instructions of the luciferase trial kit and the protein concentration was measured by the Bradford method. In order eliminate the background noise caused by the lysis solution, this value was deducted in each value of the experiment and the activation was expressed as proportional induction compared to the untreated cells. Cells. The 5.1 cellular line was used, as and how described in example 1. Luciferase Trial. The 5.1 cellular line was pre-incubated for 30 minutes with oleic acid in the concentrations as stated, followed by stimulation with TNFα (2 ng/ml) for 6 hours. The NF-kB transcriptional activity was measured in the same way as in example 1. Cells. The 5.1 cellular line was used, as and how described in example 1. Luciferase Trial. […] The NF-kB transcriptional activity was measured in the same way as in example 1.
smiles,measurement,value
CCCCCCCC/C=C\CCCCCCCC(=O)O [oleic acid],"activation index (NF-kB transcription factor activation, luciferase, proportional induction compared to untreated cells)",7-8
